Patent publication US8895504B2, “Amylin derivatives” (priority 2008, dated 2014)
*1 amine or outer side, *2 acyl side, *3 side chain or, on linkers, in order; H or OH if unused. Where a SMILES comes first, the peptide text is derived from it. Bridges are numbered along the chain shown (N, C = ends). The star is where a group is joined. C20 diacid = O=C(O)CCCCCCCCCCCCCCCCCCC(=O)*; γGlu = O=C(O)[C@H](CCC(=O)[*:2])N[*:1]; AEEA = NCCOCCOCC(=O)O; GABA = NCCCC(=O)O

The molecules below were run against T1, Amylin 3(a) receptor (human calcitonin receptor (CTa) and RAMP-3) (Homo sapiens, UniProt O60896+P30988) (assay: Luciferase assay (III), BHK Amylin 3(a)//CRE-luc cells). Conditions: BHK cells with Amylin 3(a) receptor and CRE luciferase reporter, 4 hours incubation; read-out: Potency Luciferase.
T1 construct: expressed in transfected cells; host or cells: BHK570 cells, stably transfected with a CRE-luciferase reporter
Assay type: cell-based
Method in brief: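 Read-out is CRE-driven luciferase luminescence, taken 30 min after LucLite addition at room temperature. Compounds were incubated 4 h at 37° C in assay medium (10% FBS, 10 mM Hepes, pH 7,4). The cell line is BHK570 co-transfected with human calcitonin receptor CTa and RAMP-3, seeded overnight before use.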

T1 sequence (O60896 24-148): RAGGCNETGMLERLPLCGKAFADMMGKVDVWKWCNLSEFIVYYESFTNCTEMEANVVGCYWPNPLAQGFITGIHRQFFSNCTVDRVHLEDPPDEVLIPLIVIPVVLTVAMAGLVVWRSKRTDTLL
T1 sequence (P30988 25-474): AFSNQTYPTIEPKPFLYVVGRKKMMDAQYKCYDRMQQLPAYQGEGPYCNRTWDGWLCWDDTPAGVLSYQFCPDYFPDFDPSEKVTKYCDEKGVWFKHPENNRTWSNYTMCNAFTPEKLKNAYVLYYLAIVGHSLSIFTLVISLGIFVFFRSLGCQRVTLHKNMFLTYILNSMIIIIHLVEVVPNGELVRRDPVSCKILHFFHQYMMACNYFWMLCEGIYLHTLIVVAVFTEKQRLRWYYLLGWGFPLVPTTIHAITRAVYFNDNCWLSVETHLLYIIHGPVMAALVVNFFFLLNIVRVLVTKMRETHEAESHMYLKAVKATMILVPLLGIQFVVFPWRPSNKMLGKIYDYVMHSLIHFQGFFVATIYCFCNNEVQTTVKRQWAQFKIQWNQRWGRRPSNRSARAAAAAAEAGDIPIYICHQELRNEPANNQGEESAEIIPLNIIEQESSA

SMILES	EC50 [nM]
CC[C@H](C)[C@H](NC(=O)[C@@H]1CCCN1C(=O)CNC(=O)[C@H](Cc1ccccc1)NC(=O)[C@H](CC(N)=O)NC(=O)[C@H](CC(N)=O)NC(=O)[C@H](CO)NC(=O)[C@H](CO)NC(=O)[C@H](Cc1c[nH]cn1)NC(=O)[C@H](CCCNC(=N)N)NC(=O)[C@H](CC(C)C)NC(=O)[C@H](Cc1ccccc1)NC(=O)[C@H](CC(N)=O)NC(=O)[C@H](C)NC(=O)[C@H](CC(C)C)NC(=O)[C@H](CCCNC(=N)N)NC(=O)[C@H](CCC(N)=O)NC(=O)[C@@H](NC(=O)[C@H](C)NC(=O)[C@@H]1CSSC[C@H](NC(=O)[C@H](Cc2c[nH]cn2)NC(=O)[C@H](Cc2c[nH]cn2)NC(=O)COCCOCCNC(=O)CC[C@H](NC(=O)CCCCCCCCCCCCCCCCCCC(=O)O)C(=O)O)C(=O)N[C@@H](CC(N)=O)C(=O)N[C@@H]([C@@H](C)O)C(=O)N[C@@H](C)C(=O)N[C@@H]([C@@H](C)O)C(=O)N1)[C@@H](C)O)C(=O)N[C@@H](CC(C)C)C(=O)N1CCC[C@H]1C(=O)N1CCC[C@H]1C(=O)N[C@H](C(=O)N[C@@H](CC(N)=O)C(=O)N[C@H](C(=O)NCC(=O)N[C@@H](CO)C(=O)N[C@@H](CC(N)=O)C(=O)N[C@H](C(=O)N[C@@H](Cc1ccc(O)cc1)C(N)=O)[C@@H](C)O)C(C)C)[C@@H](C)O [Example 34, N-alpha-[2-(2-{2-[4-(S)-Carboxy-4-(19-carboxynonadecanoylamino)butyrylamino]ethoxy}ethoxy)acetyl]-His-[His1,Arg17]-pramlintide] ({C20 diacid-γGlu-AEEA}-HHCNTATCATQRLANFLRHSSNNFGPILPPTNVGSNTY-NH2; disulfide 3-8)	0.2
CC[C@H](C)[C@H](NC(=O)[C@@H]1CCCN1C(=O)CNC(=O)[C@H](Cc1ccccc1)NC(=O)[C@H](CC(N)=O)NC(=O)[C@H](CC(N)=O)NC(=O)[C@H](CO)NC(=O)[C@H](CO)NC(=O)[C@H](Cc1c[nH]cn1)NC(=O)[C@H](Cc1c[nH]cn1)NC(=O)[C@H](CC(C)C)NC(=O)[C@H](Cc1ccccc1)NC(=O)[C@H](CC(N)=O)NC(=O)[C@H](C)NC(=O)[C@H](CC(C)C)NC(=O)[C@H](CCCNC(=N)N)NC(=O)[C@H](CCC(N)=O)NC(=O)[C@@H](NC(=O)[C@H](C)NC(=O)[C@@H]1CSSC[C@H](NC(=O)[C@H](CCCCN)NC(=O)[C@H](Cc2c[nH]cn2)NC(=O)CC[C@H](NC(=O)CCCCCCCCCCCCCCCCCCC(=O)O)C(=O)O)C(=O)N[C@@H](CC(N)=O)C(=O)N[C@@H]([C@@H](C)O)C(=O)N[C@@H](C)C(=O)N[C@@H]([C@@H](C)O)C(=O)N1)[C@@H](C)O)C(=O)N[C@@H](CC(C)C)C(=O)N1CCC[C@H]1C(=O)N1CCC[C@H]1C(=O)N[C@H](C(=O)N[C@@H](CC(N)=O)C(=O)N[C@H](C(=O)NCC(=O)N[C@@H](CO)C(=O)N[C@@H](CC(N)=O)C(=O)N[C@H](C(=O)N[C@@H](Cc1ccc(O)cc1)C(N)=O)[C@@H](C)O)C(C)C)[C@@H](C)O [Example 28, N-alpha-[(S)-4-Carboxy-4-(19-carboxynonadecanoylamino)butyryl]-His-[His17]-pramlintide] ({C20 diacid-γGlu}-HKCNTATCATQRLANFLHHSSNNFGPILPPTNVGSNTY-NH2; disulfide 3-8)	0.1
CC[C@H](C)[C@H](NC(=O)[C@@H]1CCCN1C(=O)CNC(=O)[C@H](Cc1ccccc1)NC(=O)[C@H](CC(N)=O)NC(=O)[C@H](CC(N)=O)NC(=O)[C@H](CO)NC(=O)[C@H](CO)NC(=O)[C@H](Cc1c[nH]cn1)NC(=O)[C@H](CCCNC(=N)N)NC(=O)[C@H](CC(C)C)NC(=O)[C@H](Cc1ccccc1)NC(=O)[C@H](CC(N)=O)NC(=O)[C@H](C)NC(=O)[C@H](CC(C)C)NC(=O)[C@H](CCCNC(=N)N)NC(=O)[C@H](CCC(N)=O)NC(=O)[C@@H](NC(=O)[C@H](C)NC(=O)[C@@H]1CSSC[C@H](NC(=O)[C@H](CCCCN)NC(=O)[C@H](CCCNC(=N)N)NC(=O)CCCNC(=O)CCCCCCCCCCCCCCCCCCC(=O)O)C(=O)N[C@@H](CC(N)=O)C(=O)N[C@@H]([C@@H](C)O)C(=O)N[C@@H](C)C(=O)N[C@@H]([C@@H](C)O)C(=O)N1)[C@@H](C)O)C(=O)N[C@@H](CC(C)C)C(=O)N1CCC[C@H]1C(=O)N1CCC[C@H]1C(=O)N[C@H](C(=O)N[C@@H](CC(N)=O)C(=O)N[C@H](C(=O)NCC(=O)N[C@@H](CO)C(=O)N[C@@H](CC(N)=O)C(=O)N[C@H](C(=O)N[C@@H](Cc1ccc(O)cc1)C(N)=O)[C@@H](C)O)C(C)C)[C@@H](C)O [Example 25, N-alpha-[4-(19-Carboxynonadecanoylamino)butyryl]-Arg-[Arg17]-pramlintide] ({C20 diacid-GABA}-RKCNTATCATQRLANFLRHSSNNFGPILPPTNVGSNTY-NH2; disulfide 3-8)	0.03
CC[C@H](C)[C@H](NC(=O)[C@@H]1CCCN1C(=O)CNC(=O)[C@H](Cc1ccccc1)NC(=O)[C@H](CC(N)=O)NC(=O)[C@H](CC(N)=O)NC(=O)[C@H](CO)NC(=O)[C@H](CO)NC(=O)[C@H](Cc1c[nH]cn1)NC(=O)[C@H](Cc1c[nH]cn1)NC(=O)[C@H](CC(C)C)NC(=O)[C@H](Cc1ccccc1)NC(=O)[C@H](CC(N)=O)NC(=O)[C@H](C)NC(=O)[C@H](CC(C)C)NC(=O)[C@H](CCCNC(=N)N)NC(=O)[C@H](CCC(N)=O)NC(=O)[C@@H](NC(=O)[C@H](C)NC(=O)[C@@H]1CSSC[C@H](NC(=O)[C@H](Cc2c[nH]cn2)NC(=O)[C@H](CCCNC(=N)N)NC(=O)[C@H](Cc2c[nH]cn2)NC(=O)[C@H](CCC(=O)O)NC(=O)CC[C@H](NC(=O)CCCCCCCCCCCCCCCCCCC(=O)O)C(=O)O)C(=O)N[C@@H](CC(N)=O)C(=O)N[C@@H]([C@@H](C)O)C(=O)N[C@@H](C)C(=O)N[C@@H]([C@@H](C)O)C(=O)N1)[C@@H](C)O)C(=O)N[C@@H](CC(C)C)C(=O)N1CCC[C@H]1C(=O)N1CCC[C@H]1C(=O)N[C@H](C(=O)N[C@@H](CC(N)=O)C(=O)N[C@H](C(=O)NCC(=O)N[C@@H](CO)C(=O)N[C@@H](CC(N)=O)C(=O)N[C@H](C(=O)N[C@@H](Cc1ccc(O)cc1)C(N)=O)[C@@H](C)O)C(C)C)[C@@H](C)O [Example 66, N-alpha-[(S)-4-Carboxy-4-(19-carboxynonadecanoylamino)butyryl]-Glu-His-Arg-[His1,His17]-pramlintide] ({C20 diacid-γGlu}-EHRHCNTATCATQRLANFLHHSSNNFGPILPPTNVGSNTY-NH2; disulfide 5-10)	0.1
CC[C@H](C)[C@H](NC(=O)[C@@H]1CCCN1C(=O)CNC(=O)[C@H](Cc1ccccc1)NC(=O)[C@H](CC(N)=O)NC(=O)[C@H](CC(N)=O)NC(=O)[C@H](CO)NC(=O)[C@H](CO)NC(=O)[C@H](Cc1c[nH]cn1)NC(=O)[C@H](Cc1c[nH]cn1)NC(=O)[C@H](CC(C)C)NC(=O)[C@H](Cc1ccccc1)NC(=O)[C@H](CC(N)=O)NC(=O)[C@H](C)NC(=O)[C@H](CC(C)C)NC(=O)[C@H](CCCNC(=N)N)NC(=O)[C@H](CCC(N)=O)NC(=O)[C@@H](NC(=O)[C@H](C)NC(=O)[C@@H]1CSSC[C@H](NC(=O)CC[C@H](NC(=O)CCCCCCCCCCCCCCCCCCC(=O)O)C(=O)O)C(=O)N[C@@H](CC(N)=O)C(=O)N[C@@H]([C@@H](C)O)C(=O)N[C@@H](C)C(=O)N[C@@H]([C@@H](C)O)C(=O)N1)[C@@H](C)O)C(=O)N[C@@H](CC(C)C)C(=O)N1CCC[C@H]1C(=O)N1CCC[C@H]1C(=O)N[C@H](C(=O)N[C@@H](CC(=O)O)C(=O)N[C@H](C(=O)NCC(=O)N[C@@H](CO)C(=O)N[C@@H](CC(N)=O)C(=O)N[C@H](C(=O)N[C@@H](Cc1ccc(O)cc1)C(N)=O)[C@@H](C)O)C(C)C)[C@@H](C)O [Example 53, N-alpha-[(S)-4-Carboxy-4-(19-carboxynonadecanoylamino)butyryl]-[His17,Asp31]-pramlintide (2-37)] ({C20 diacid-γGlu}-CNTATCATQRLANFLHHSSNNFGPILPPTDVGSNTY-NH2; disulfide 1-6)	0.06
CC[C@H](C)[C@H](NC(=O)[C@@H]1CCCN1C(=O)CNC(=O)[C@H](Cc1ccccc1)NC(=O)[C@H](CC(N)=O)NC(=O)[C@H](CC(N)=O)NC(=O)[C@H](CO)NC(=O)[C@H](CO)NC(=O)[C@H](Cc1c[nH]cn1)NC(=O)[C@H](Cc1c[nH]cn1)NC(=O)[C@H](CC(C)C)NC(=O)[C@H](Cc1ccccc1)NC(=O)[C@H](CC(=O)O)NC(=O)[C@H](C)NC(=O)[C@H](CC(C)C)NC(=O)[C@H](CCCNC(=N)N)NC(=O)[C@H](CCC(N)=O)NC(=O)[C@@H](NC(=O)[C@H](C)NC(=O)[C@@H]1CSSC[C@H](NC(=O)CC[C@H](NC(=O)CCCCCCCCCCCCCCCCCCC(=O)O)C(=O)O)C(=O)N[C@@H](CC(N)=O)C(=O)N[C@@H]([C@@H](C)O)C(=O)N[C@@H](C)C(=O)N[C@@H]([C@@H](C)O)C(=O)N1)[C@@H](C)O)C(=O)N[C@@H](CC(C)C)C(=O)N1CCC[C@H]1C(=O)N1CCC[C@H]1C(=O)N[C@H](C(=O)N[C@@H](CC(N)=O)C(=O)N[C@H](C(=O)NCC(=O)N[C@@H](CO)C(=O)N[C@@H](CC(N)=O)C(=O)N[C@H](C(=O)N[C@@H](Cc1ccc(O)cc1)C(N)=O)[C@@H](C)O)C(C)C)[C@@H](C)O [Example 43, N-alpha-[(S)-4-Carboxy-4-(19-carboxynonadecanoylamino)butyryl]-[Asp14,His17]-pramlintide (2-37)] ({C20 diacid-γGlu}-CNTATCATQRLADFLHHSSNNFGPILPPTNVGSNTY-NH2; disulfide 1-6)	0.1
